A value given as a limit tells only on which side of the number the result lay.

One may read the IC50 as the concentration that gives 50% inhibition.

In the first experiment the test system is Vero cells. The experiment can be described thus: Cytotoxicity test on Vero cells. The format is cell-based. Particulars: Chlorocebus sabaeus, 48 h + 24 h resazurin, read-out: Toxicity IC50 Vero cell. For orientation: The colour change of resazurin is a common sign of viable cells or microbes.
In the case of `O=C(Nc1ccc([Se][Se]c2ccc(NC(=O)c3ccccc3)cc2)cc1)c1ccccc1` [Compound 1], the CC50 amounted to 800 ± 44 µM.
Still for that read-out and setting: the value for `O=C(Nc1ccc([Se][Se]c2ccc(NC(=O)c3ccc(Cl)cc3)cc2)cc1)c1ccc(Cl)cc1` [Compound 2] was 622 ± 41.9 µM.
`COc1ccc(C(=O)Nc2ccc([Se][Se]c3ccc(NC(=O)c4ccc(OC)cc4)cc3)cc2)cc1` [Compound 3]: the CC50 amounted to 252 ± 21.6 µM.
The same measure, in the same setting: the value for `N#Cc1ccc(C(=O)Nc2ccc([Se][Se]c3ccc(NC(=O)c4ccc(C#N)cc4)cc3)cc2)cc1` [Compound 4] was 280 ± 34.2 µM; that for `O=C(Nc1ccc([Se][Se]c2ccc(NC(=O)c3ccc([N+](=O)[O-])cc3)cc2)cc1)c1ccc([N+](=O)[O-])cc1` [Compound 5] was 552 ± 43.1 µM; that for `O=C(Nc1ccc([Se][Se]c2ccc(NC(=O)c3ccc(C(F)(F)F)cc3)cc2)cc1)c1ccc(C(F)(F)F)cc1` [Compound 6] was 536 ± 39.2 µM.
Regarding `Cc1ccc(C(=O)Nc2ccc([Se][Se]c3ccc(NC(=O)c4ccc(C)cc4)cc3)cc2)cc1` [Compound 7], the CC50 was 341 ± 28.3 µM.
Regarding `O=C(Nc1ccc([Se][Se]c2ccc(NC(=O)c3ccco3)cc2)cc1)c1ccco1` [Compound 8], the CC50 worked out at 1250 ± 97.7 µM.
Consider `O=C(Nc1ccc([Se][Se]c2ccc(NC(=O)c3cccs3)cc2)cc1)c1cccs1` [Compound 9], for which the CC50 is less than 50 µM.
On to `O=C(Nc1ccc([Se][Se]c2ccc(NC(=O)c3ccno3)cc2)cc1)c1ccno1` [Compound 10], for which the CC50 turned out to be 212 ± 18.7 µM.
Consider `O=C(Nc1ccc([Se][Se]c2ccc(NC(=O)C34CC5CC(CC(C5)C3)C4)cc2)cc1)C12CC3CC(CC(C3)C1)C2` [Compound 11], for which the CC50 was 226 ± 19.1 µM.
Still for that read-out and setting: the figure for `O=C(/C=C/c1ccccc1)Nc1ccc([Se][Se]c2ccc(NC(=O)/C=C/c3ccccc3)cc2)cc1` [Compound 12] is 280 ± 24.4 µM; for `O=C(Nc1ccc([Se][Se]c2ccc(NC(=O)c3cccc4ccccc34)cc2)cc1)c1cccc2ccccc12` [Compound 13] it is 98.2 ± 12.8 µM.
For the molecule `CSc1ccc(C(=O)Nc2ccc([Se][Se]c3ccc(NC(=O)c4ccc(SC)cc4)cc3)cc2)cc1` [Compound 14], the CC50 turned out to be 407 ± 17.8 µM.
Take `COP(=O)(Nc1ccc([Se][Se]c2ccc(NP(=O)(OC)OC)cc2)cc1)OC` [Compound 15]: the CC50 was less than 50 µM.
Take `O=P(Nc1ccc([Se][Se]c2ccc(NP(=O)(Oc3ccccc3)Oc3ccccc3)cc2)cc1)(Oc1ccccc1)Oc1ccccc1` [Compound 16]: the CC50 stood at 147 ± 11.4 µM.
With `CCOP(=O)(Nc1ccc([Se][Se]c2ccc(NP(=O)(OCC)OCC)cc2)cc1)OCC` [Compound 17], the CC50 turned out to be 183 ± 20 µM.

The subject of another experiment is T. cruzi epimastigotes, Tulahuen strain. The experiment can be described thus: Screening against extracellular epimastigotes, Tulahuen strain. The format is cell-based, Trypanosoma cruzi. To be noted: Trypanosoma cruzi, TULAHUEN; 48 h + 24 h resazurin; read-out: Activity IC50, epimastigote form, Tulahuen strain.
Turning to `O=C(Nc1ccc([Se][Se]c2ccc(NC(=O)c3ccccc3)cc2)cc1)c1ccccc1` [Compound 1], the IC50 is more than 50 µM.
Take `O=C(Nc1ccc([Se][Se]c2ccc(NC(=O)c3ccc(Cl)cc3)cc2)cc1)c1ccc(Cl)cc1` [Compound 2]: the half-inhibitory concentration (IC50) was more than 50 µM.
On to `COc1ccc(C(=O)Nc2ccc([Se][Se]c3ccc(NC(=O)c4ccc(OC)cc4)cc3)cc2)cc1` [Compound 3], for which the half-maximal inhibitory concentration (IC50) is more than 50 µM.
For `N#Cc1ccc(C(=O)Nc2ccc([Se][Se]c3ccc(NC(=O)c4ccc(C#N)cc4)cc3)cc2)cc1` [Compound 4], the IC50 is more than 50 µM.
On to `O=C(Nc1ccc([Se][Se]c2ccc(NC(=O)c3ccc([N+](=O)[O-])cc3)cc2)cc1)c1ccc([N+](=O)[O-])cc1` [Compound 5], for which the IC50 is more than 50 µM.
Take `O=C(Nc1ccc([Se][Se]c2ccc(NC(=O)c3ccc(C(F)(F)F)cc3)cc2)cc1)c1ccc(C(F)(F)F)cc1` [Compound 6]: the 50% inhibitory concentration (IC50) was more than 50 µM.
On the same count and under the same terms, the figure for `Cc1ccc(C(=O)Nc2ccc([Se][Se]c3ccc(NC(=O)c4ccc(C)cc4)cc3)cc2)cc1` [Compound 7] is more than 50 µM; for `O=C(Nc1ccc([Se][Se]c2ccc(NC(=O)c3ccco3)cc2)cc1)c1ccco1` [Compound 8] it is more than 50 µM.
Still for that read-out and setting: the figure for `O=C(Nc1ccc([Se][Se]c2ccc(NC(=O)c3cccs3)cc2)cc1)c1cccs1` [Compound 9] is more than 50 µM; for `O=C(Nc1ccc([Se][Se]c2ccc(NC(=O)c3ccno3)cc2)cc1)c1ccno1` [Compound 10] it is more than 50 µM.
With `O=C(Nc1ccc([Se][Se]c2ccc(NC(=O)C34CC5CC(CC(C5)C3)C4)cc2)cc1)C12CC3CC(CC(C3)C1)C2` [Compound 11], the IC50 is more than 50 µM.
On to `O=C(/C=C/c1ccccc1)Nc1ccc([Se][Se]c2ccc(NC(=O)/C=C/c3ccccc3)cc2)cc1` [Compound 12], for which the IC50 was more than 50 µM.
For the molecule `O=C(Nc1ccc([Se][Se]c2ccc(NC(=O)c3cccc4ccccc34)cc2)cc1)c1cccc2ccccc12` [Compound 13], the IC50 is more than 50 µM.
Turning to `CSc1ccc(C(=O)Nc2ccc([Se][Se]c3ccc(NC(=O)c4ccc(SC)cc4)cc3)cc2)cc1` [Compound 14], the IC50 is more than 50 µM.
In the case of `COP(=O)(Nc1ccc([Se][Se]c2ccc(NP(=O)(OC)OC)cc2)cc1)OC` [Compound 15], the IC50 was 14.4 ± 1.7 µM.
Still for that read-out and setting: the figure for `O=P(Nc1ccc([Se][Se]c2ccc(NP(=O)(Oc3ccccc3)Oc3ccccc3)cc2)cc1)(Oc1ccccc1)Oc1ccccc1` [Compound 16] is more than 50 µM; for `CCOP(=O)(Nc1ccc([Se][Se]c2ccc(NP(=O)(OCC)OCC)cc2)cc1)OCC` [Compound 17] it is more than 50 µM.

The test system of a further experiment is T. cruzi epimastigotes, Arequipa strain. The experiment can be described thus: Screening against extracellular epimastigotes, Arequipa strain. It counts as cell-based, Trypanosoma cruzi. Particulars: Trypanosoma cruzi; 48 h + 24 h resazurin; read-out: Activity IC50, epimastigote form, Arequipa strain.
`O=C(Nc1ccc([Se][Se]c2ccc(NC(=O)c3ccccc3)cc2)cc1)c1ccccc1` [Compound 1]: the IC50 was more than 50 µM.
As for `O=C(Nc1ccc([Se][Se]c2ccc(NC(=O)c3ccc(Cl)cc3)cc2)cc1)c1ccc(Cl)cc1` [Compound 2], the half-inhibitory concentration (IC50) was more than 50 µM.
In the case of `COc1ccc(C(=O)Nc2ccc([Se][Se]c3ccc(NC(=O)c4ccc(OC)cc4)cc3)cc2)cc1` [Compound 3], the concentration for half-maximal inhibition (IC50) was more than 50 µM.
Regarding `N#Cc1ccc(C(=O)Nc2ccc([Se][Se]c3ccc(NC(=O)c4ccc(C#N)cc4)cc3)cc2)cc1` [Compound 4], the IC50 is more than 50 µM.
As to `O=C(Nc1ccc([Se][Se]c2ccc(NC(=O)c3ccc([N+](=O)[O-])cc3)cc2)cc1)c1ccc([N+](=O)[O-])cc1` [Compound 5], the IC50 was more than 50 µM.
On the same count and under the same terms, the figure for `O=C(Nc1ccc([Se][Se]c2ccc(NC(=O)c3ccc(C(F)(F)F)cc3)cc2)cc1)c1ccc(C(F)(F)F)cc1` [Compound 6] is more than 50 µM; for `Cc1ccc(C(=O)Nc2ccc([Se][Se]c3ccc(NC(=O)c4ccc(C)cc4)cc3)cc2)cc1` [Compound 7] it is more than 50 µM.
In the case of `O=C(Nc1ccc([Se][Se]c2ccc(NC(=O)c3ccco3)cc2)cc1)c1ccco1` [Compound 8], the half-inhibitory concentration (IC50) is more than 50 µM.
For `O=C(Nc1ccc([Se][Se]c2ccc(NC(=O)c3cccs3)cc2)cc1)c1cccs1` [Compound 9], the IC50 was more than 50 µM.
Same read-out and setting: the figure for `O=C(Nc1ccc([Se][Se]c2ccc(NC(=O)c3ccno3)cc2)cc1)c1ccno1` [Compound 10] is more than 50 µM.
As for `O=C(Nc1ccc([Se][Se]c2ccc(NC(=O)C34CC5CC(CC(C5)C3)C4)cc2)cc1)C12CC3CC(CC(C3)C1)C2` [Compound 11], the IC50 is more than 50 µM.
Regarding `O=C(/C=C/c1ccccc1)Nc1ccc([Se][Se]c2ccc(NC(=O)/C=C/c3ccccc3)cc2)cc1` [Compound 12], the IC50 was more than 50 µM.
Turning to `O=C(Nc1ccc([Se][Se]c2ccc(NC(=O)c3cccc4ccccc34)cc2)cc1)c1cccc2ccccc12` [Compound 13], the IC50 was more than 50 µM.
Take `CSc1ccc(C(=O)Nc2ccc([Se][Se]c3ccc(NC(=O)c4ccc(SC)cc4)cc3)cc2)cc1` [Compound 14]: the concentration for half-maximal inhibition (IC50) was more than 50 µM.
Still for that read-out and setting: the value for `COP(=O)(Nc1ccc([Se][Se]c2ccc(NP(=O)(OC)OC)cc2)cc1)OC` [Compound 15] was 19.6 ± 2 µM; that for `O=P(Nc1ccc([Se][Se]c2ccc(NP(=O)(Oc3ccccc3)Oc3ccccc3)cc2)cc1)(Oc1ccccc1)Oc1ccccc1` [Compound 16] was more than 50 µM.
For `CCOP(=O)(Nc1ccc([Se][Se]c2ccc(NP(=O)(OCC)OCC)cc2)cc1)OCC` [Compound 17], the IC50 was more than 50 µM.

The subject of a further experiment is T. cruzi epimastigotes, SN3 strain. Briefly: Screening against extracellular epimastigotes, SN3 strain. It counts as cell-based, Trypanosoma cruzi. Particulars: Trypanosoma cruzi; 48 h + 24 h resazurin; read-out: Activity IC50, epimastigote form, SN3 strain.
Consider `O=C(Nc1ccc([Se][Se]c2ccc(NC(=O)c3ccccc3)cc2)cc1)c1ccccc1` [Compound 1], for which the IC50 was more than 50 µM.
For the molecule `O=C(Nc1ccc([Se][Se]c2ccc(NC(=O)c3ccc(Cl)cc3)cc2)cc1)c1ccc(Cl)cc1` [Compound 2], the IC50 is more than 50 µM.
Regarding `COc1ccc(C(=O)Nc2ccc([Se][Se]c3ccc(NC(=O)c4ccc(OC)cc4)cc3)cc2)cc1` [Compound 3], the 50% inhibitory concentration (IC50) was more than 50 µM.
Same read-out and setting: the figure for `N#Cc1ccc(C(=O)Nc2ccc([Se][Se]c3ccc(NC(=O)c4ccc(C#N)cc4)cc3)cc2)cc1` [Compound 4] is more than 50 µM; for `O=C(Nc1ccc([Se][Se]c2ccc(NC(=O)c3ccc([N+](=O)[O-])cc3)cc2)cc1)c1ccc([N+](=O)[O-])cc1` [Compound 5] it is more than 50 µM.
As to `O=C(Nc1ccc([Se][Se]c2ccc(NC(=O)c3ccc(C(F)(F)F)cc3)cc2)cc1)c1ccc(C(F)(F)F)cc1` [Compound 6], the concentration for half-maximal inhibition (IC50) was more than 50 µM.
For the molecule `Cc1ccc(C(=O)Nc2ccc([Se][Se]c3ccc(NC(=O)c4ccc(C)cc4)cc3)cc2)cc1` [Compound 7], the IC50 is more than 50 µM.
As to `O=C(Nc1ccc([Se][Se]c2ccc(NC(=O)c3ccco3)cc2)cc1)c1ccco1` [Compound 8], the IC50 was more than 50 µM.
With `O=C(Nc1ccc([Se][Se]c2ccc(NC(=O)c3cccs3)cc2)cc1)c1cccs1` [Compound 9], the IC50 was 48 ± 6.4 µM.
Regarding `O=C(Nc1ccc([Se][Se]c2ccc(NC(=O)c3ccno3)cc2)cc1)c1ccno1` [Compound 10], the concentration for half-maximal inhibition (IC50) is more than 50 µM.
As to `O=C(Nc1ccc([Se][Se]c2ccc(NC(=O)C34CC5CC(CC(C5)C3)C4)cc2)cc1)C12CC3CC(CC(C3)C1)C2` [Compound 11], the half-inhibitory concentration (IC50) is more than 50 µM.
Take `O=C(/C=C/c1ccccc1)Nc1ccc([Se][Se]c2ccc(NC(=O)/C=C/c3ccccc3)cc2)cc1` [Compound 12]: the half-maximal inhibitory concentration (IC50) is more than 50 µM.
Regarding `O=C(Nc1ccc([Se][Se]c2ccc(NC(=O)c3cccc4ccccc34)cc2)cc1)c1cccc2ccccc12` [Compound 13], the IC50 was more than 50 µM.
Take `CSc1ccc(C(=O)Nc2ccc([Se][Se]c3ccc(NC(=O)c4ccc(SC)cc4)cc3)cc2)cc1` [Compound 14]: the half-inhibitory concentration (IC50) was more than 50 µM.
For the molecule `COP(=O)(Nc1ccc([Se][Se]c2ccc(NP(=O)(OC)OC)cc2)cc1)OC` [Compound 15], the half-inhibitory concentration (IC50) is 12.5 ± 1.1 µM.
On the same count and under the same terms, the value for `O=P(Nc1ccc([Se][Se]c2ccc(NP(=O)(Oc3ccccc3)Oc3ccccc3)cc2)cc1)(Oc1ccccc1)Oc1ccccc1` [Compound 16] was more than 50 µM; that for `CCOP(=O)(Nc1ccc([Se][Se]c2ccc(NP(=O)(OCC)OCC)cc2)cc1)OCC` [Compound 17] was more than 50 µM.

The record behind these values is article PMC8480776, “Selenium Derivatives as Promising Therapy for Chagas Disease: In Vitro and In Vivo Studies” (ACS Infectious Diseases, 2021).
